Like-named read-outs stand apart in the source and are kept apart here.
Key:
[1] = test system: Haemophilus influenzae; conditions: cited from earlier work
[2] = test system: Moraxella catarrhalis; conditions: cited from earlier work
[3] = test system: Streptococcus pneumoniae; conditions: cited from earlier work
[4] = test system: Staphylococcus aureus; conditions: cited from earlier work
[5] = test system: rats; conditions: oral doses up to 100 mg/kg/day; cited from earlier work
[6] = test system: Pseudomonas aeruginosa; conditions: cited from earlier work
[7] = Particle size (D90) during manufacturing process; type: physicochemical
[8] = Loss on drying (weight loss upon heating); type: physicochemical; conditions: solid held at 40° C. 24 hours, then 125° C. oven one hour
Procedure: To assess the form of ciprofloxacin samples described in the present disclosure, a comparison experiment is conducted to evaluate the sample's loss of weight upon heating. […] The conditions and results of the experiment are summarized below: Experimental Setup—Loss on Drying: • If suspension: Pipette Cipro suspension onto filter on vacuum filter flask • Transfer filter/dry powder to 40° C. oven, hold 24 hours • Transfer solid to pre-weighed aluminum pan and weigh solid • Transfer pan to 125° C. oven, hold one hour • Weigh again and determine weight loss due to 125° C.

SMILES	antimicrobial activity against isolates [1]	antimicrobial activity against isolates [2]	antimicrobial activity against isolates [3]	antimicrobial activity against isolates [4]	impairment of fertility [5]	antimicrobial activity against isolates [6]	particle size D90 ([7]; listed as Ciprofloxacin free base anhydrous API powder)	Weight Loss on Drying [8] [%]	particle size D90 [7]
O=C(O)c1cn(C2CC2)c2cc(N3CCNCC3)c(F)cc2c1=O [Ciprofloxacin, 1-cyclopropyl-6-fluoro-1,4-dihydro-4-oxo-7-(1-piperazinyl)-3-quinolinecarboxylic acid]	active against most isolates	active against most isolates	active against most isolates	active against most isolates	no evidence of impairment	active against most isolates	–	–	–
O=C(O)c1cn(C2CC2)c2cc(N3CCNCC3)c(F)cc2c1=O [Sample 1]	–	–	–	–	–	–	under 15 μm	0.1	–
O=C(O)c1cn(C2CC2)c2cc(N3CCNCC3)c(F)cc2c1=O [Sample 2]	–	–	–	–	–	–	–	11.1	around 60 μm

— patent US11246863B2 (ALK-ABELLÓ, INC., priority 2015, dated 2022)
